# Data taken from patent US7718808B2, “Thiazole derivatives” (Kyowa Hakko Kirin Co., Ltd., priority 2003, dated 2010).
row,SMILES,melting point
1,"Cn1ccc(C(=O)Nc2nc(-c3ccco3)c(C(=O)c3ccccn3)s2)cc1=O [Compound 233, N-[4-(2-Furyl)-5-(pyridin-2-ylcarbonyl)thiazol-2-yl]-1-methyl-2-oxo-1,2-dihydropyridine-4-carboxamide]",280 to 285 °C
2,"O=C(Nc1nc(-c2ccco2)c(C(=O)c2ccccn2)s1)c1ccc(Br)o1 [Compound 235, 5-Bromo-N-[4-(2-furyl)-5-(pyridin-2-ylcarbonyl)thiazol-2-yl]furan-2-carboxamide]",211 to 212 °C
3,"O=C(Nc1nc(-c2ccco2)c(C(=O)c2ccccn2)s1)c1ccc([N+](=O)[O-])o1 [Compound 236, N-[4-(2-Furyl)-5-(pyridin-2-ylcarbonyl)thiazol-2-yl]-5-nitrofuran-2-carboxamide]",278 to 283 °C (dec.)
4,"Cc1ccoc1C(=O)Nc1nc(-c2ccco2)c(C(=O)c2ccccn2)s1 [Compound 237, N-[4-(2-Furyl)-5-(pyridin-2-ylcarbonyl)thiazol-2-yl]-3-methylfuran-2-carboxamide]",174 to 176 °C
5,"O=C(Nc1nc(-c2ccco2)c(C(=O)c2ccccn2)s1)c1ccoc1 [Compound 238, N-[4-(2-Furyl)-5-(pyridin-2-ylcarbonyl)thiazol-2-yl]furan-3-carboxamide]",187 to 189 °C
6,"Cc1occc1C(=O)Nc1nc(-c2ccco2)c(C(=O)c2ccccn2)s1 [Compound 239, N-[4-(2-Furyl)-5-(pyridin-2-ylcarbonyl)thiazol-2-yl]-2-methylfuran-3-carboxamide]",183 to 186 °C
7,"Cc1cc(C(=O)Nc2nc(-c3ccco3)c(C(=O)c3ccccn3)s2)c(C)o1 [Compound 240, N-[4-(2-Furyl)-5-(pyridin-2-ylcarbonyl)thiazol-2-yl]-2,5-dimethylfuran-3-carboxamide]",195 to 198 °C
8,"O=C(Nc1nc(-c2ccco2)c(C(=O)c2ccccn2)s1)c1cccs1 [Compound 241, N-[4-(2-Furyl)-5-(pyridin-2-ylcarbonyl)thiazol-2-yl]thiophene-2-carboxamide]",197 to 199 °C
9,"O=C(Nc1nc(-c2ccco2)c(C(=O)c2ccccn2)s1)c1ccno1 [Compound 242, N-[4-(2-Furyl)-5-(pyridin-2-ylcarbonyl)thiazol-2-yl]isoxazole-5-carboxamide]",223 to 230 °C
10,"Cc1cc(C(=O)Nc2nc(-c3ccco3)c(C(=O)c3ccccn3)s2)no1 [Compound 243, N-[4-(2-Furyl)-5-(pyridin-2-ylcarbonyl)thiazol-2-yl]-5-methylisoxazole-3-carboxamide]",209 to 213 °C
11,"O=C(Nc1nc(-c2ccco2)c(C(=O)c2ccccn2)s1)c1ccc2snnc2c1 [Compound 244, N-[4-(2-Furyl)-5-(pyridin-2-ylcarbonyl)thiazol-2-yl]-1,2,3-benzothiadiazole-5-carboxamide]",213 to 218 °C
12,"Cn1nnc2ccc(C(=O)Nc3nc(-c4ccco4)c(C(=O)c4ccccn4)s3)cc21 [Compound 245, N-[4-(2-Furyl)-5-(pyridin-2-ylcarbonyl)thiazol-2-yl]-1-methyl-1H-benzotriazole-6-carboxamide]",230 to 231 °C
13,"CC(O)c1cc2cc(C(=O)Nc3nc(-c4ccco4)c(C(=O)c4ccccn4)s3)ccc2o1 (stereo not drawn) [Compound 246, N-[4-(2-Furyl)-5-(pyridin-2-ylcarbonyl)thiazol-2-yl]-2-(1-hydroxyethyl)-1-benzofuran-5-carboxamide]",246 to 249 °C
14,"CC(C)(O)c1cc2cc(C(=O)Nc3nc(-c4ccco4)c(C(=O)c4ccccn4)s3)ccc2o1 [Compound 247, N-[4-(2-Furyl)-5-(pyridin-2-ylcarbonyl)thiazol-2-yl]-2-(1-hydroxy-1-methylethyl)-1-benzofuran-5-carboxamide]",230 to 231 °C
15,"O=C(Nc1nc(-c2ccco2)c(C(=O)c2ccccn2)s1)c1cnc2occc2c1 [Compound 248, N-[4-(2-Furyl)-5-(pyridin-2-ylcarbonyl)thiazol-2-yl]furo[2,3-b]pyridine-5-carboxamide]",234 to 235 °C
16,"O=C(Nc1nc(-c2ccco2)c(C(=O)c2ccccn2)s1)OC1CCC1 [Compound 251, Cyclobutyl N-[4-(2-furyl)-5-(pyridin-2-ylcarbonyl)thiazol-2-yl]carbamate]",152 to 153 °C
17,"O=C(Nc1nc(-c2ccco2)c(C(=O)c2ccccn2)s1)OC1CCCC1 [Compound 252, Cyclopentyl N-[4-(2-furyl)-5-(pyridin-2-ylcarbonyl)thiazol-2-yl]carbamate]",162 to 163 °C
18,"O=C(Nc1nc(-c2ccco2)c(C(=O)c2ccccn2)s1)OC1CCOCC1 [Compound 253, 4-Tetrahydropyranyl N-[4-(2-furyl)-5-(pyridin-2-ylcarbonyl)thiazol-2-yl]carbamate]",144 to 145 °C
19,"O=C(Nc1nc(-c2ccco2)c(C(=O)c2ccccn2)s1)OC(CF)CF [Compound 255, 2-Fluoro-1-(fluoromethyl)ethyl N-[4-(2-furyl)-5-(pyridin-2-ylcarbonyl)thiazol-2-yl]carbamate]",158 to 159 °C
20,"CC(C)NC(=O)Nc1nc(-c2ccco2)c(C(=O)c2ccccn2)s1 [Compound 258, N-[4-(2-Furyl)-5-(pyridin-2-ylcarbonyl)thiazol-2-yl]-N′-isopropylurea]",182 to 186 °C
21,"COCCNC(=O)Nc1nc(-c2ccco2)c(C(=O)c2ccccn2)s1 [Compound 260, N-[4-(2-Furyl)-5-(pyridin-2-ylcarbonyl)thiazol-2-yl]-N′-(2-methoxyethyl)urea]",150 to 151 °C
22,"COCCCNC(=O)Nc1nc(-c2ccco2)c(C(=O)c2ccccn2)s1 [Compound 261, N-[4-(2-Furyl)-5-(pyridin-2-ylcarbonyl)thiazol-2-yl]-N′-(3-methoxypropyl)urea]",169 to 170 °C

# The remaining lines, values ahead:
row,melting point,SMILES
1,158 to 159 °C,"CCOC(=O)Nc1nc(-c2ccco2)c(C(=O)c2ccccn2)s1 [Compound 250, Ethyl N-[4-(2-furyl)-5-(pyridin-2-ylcarbonyl)thiazol-2-yl]carbamate]"
2,222 to 225 °C,"CN1CCC(OC(=O)Nc2nc(-c3ccco3)c(C(=O)c3ccccn3)s2)CC1 [Compound 254, 1-Methylpiperidin-4-yl N-[4-(2-furyl)-5-(pyridin-2-ylcarbonyl)thiazol-2-yl]carbamate]"
3,144 to 145 °C,"O=C(c1ccccn1)c1sc(NC(=O)N2CCOCC2)nc1-c1ccco1 [Compound 256, N-[4-(2-Furyl)-5-(pyridin-2-ylcarbonyl)thiazol-2-yl]morpholine-4-carboxamide]"
4,182 to 185 °C,"O=C(c1ccccn1)c1sc(NC(=O)N2CCCCC2)nc1-c1ccco1 [Compound 257, N-[4-(2-Furyl)-5-(pyridin-2-ylcarbonyl)thiazol-2-yl]piperidine-1-carboxamide]"
5,184 to 185 °C,"O=C(CCl)Nc1nc(-c2ccco2)c(C(=O)c2ccccn2)s1 [Compound 262, 2-Chloro-N-[4-(2-furyl)-5-(pyridin-2-ylcarbonyl)thiazol-2-yl]acetamide]"
6,170 to 171 °C,"O=C(CN1CCOCC1)Nc1nc(-c2ccco2)c(C(=O)c2ccccn2)s1 [Compound 264, N-[4-(2-Furyl)-5-(pyridin-2-ylcarbonyl)thiazol-2-yl]morpholinoacetamide]"
7,188 to 191 °C,"C[C@@H]1CN(CC(=O)Nc2nc(-c3ccco3)c(C(=O)c3ccccn3)s2)C[C@H](C)O1 [Compound 265, 2-(cis-2,6-Dimethylmorpholino)-N-[4-(2-furyl)-5-(pyridin-2-ylcarbonyl)thiazol-2-yl]acetamide]"
8,104 to 106 °C,"CC1CCN(CC(=O)Nc2nc(-c3ccco3)c(C(=O)c3ccccn3)s2)CC1 [Compound 266, N-[4-(2-Furyl)-5-(pyridin-2-ylcarbonyl)thiazol-2-yl]-2-(4-methylpiperidino)acetamide]"
9,188 to 204 °C,"O=C(CN1CCC2(CC1)OCCO2)Nc1nc(-c2ccco2)c(C(=O)c2ccccn2)s1 [Compound 269, 2-(1,4-Dioxa-8-azaspiro[4.5]decan-8-yl)-N-[4-(2-furyl)-5-(pyridin-2-ylcarbonyl)thiazol-2-yl]acetamide]"
10,214 to 220 °C (dec.),"O=C(CN1CCC(N2CCCCC2)CC1)Nc1nc(-c2ccco2)c(C(=O)c2ccccn2)s1 [Compound 270, N-[4-(2-Furyl)-5-(pyridin-2-ylcarbonyl)thiazol-2-yl]-2-(4-piperidinopiperidino)acetamide]"
11,149 to 150 °C,"O=C(CN1CCC(N2CCOCC2)CC1)Nc1nc(-c2ccco2)c(C(=O)c2ccccn2)s1 [Compound 271, N-[4-(2-Furyl)-5-(pyridin-2-ylcarbonyl)thiazol-2-yl]-2-(4-morpholinopiperidino)acetamide]"
12,136 to 145 °C,"CN1CCN(CC(=O)Nc2nc(-c3ccco3)c(C(=O)c3ccccn3)s2)CC1 [Compound 272, N-[4-(2-Furyl)-5-(pyridin-2-ylcarbonyl)thiazol-2-yl]-2-(4-methylpiperazin-1-yl)acetamide]"
13,142 to 144 °C,"CCN1CCN(CC(=O)Nc2nc(-c3ccco3)c(C(=O)c3ccccn3)s2)CC1 [Compound 273, 2-(4-Ethylpiperazin-1-yl)-N-[4-(2-furyl)-5-(pyridin-2-ylcarbonyl)thiazol-2-yl]acetamide]"
14,154 to 155 °C,"CC(C)N1CCN(CC(=O)Nc2nc(-c3ccco3)c(C(=O)c3ccccn3)s2)CC1 [Compound 274, N-[4-(2-Furyl)-5-(pyridin-2-ylcarbonyl)thiazol-2-yl]-2-(4-isopropylpiperazin-1-yl)acetamide]"
15,170 to 171 °C,"CC(=O)N1CCN(CC(=O)Nc2nc(-c3ccco3)c(C(=O)c3ccccn3)s2)CC1 [Compound 275, 2-(4-Acetylpiperazin-1-yl)-N-[4-(2-furyl)-5-(pyridin-2-ylcarbonyl)thiazol-2-yl]acetamide]"
16,203 to 204 °C,"O=C(CN1CCN(c2ccccc2)CC1)Nc1nc(-c2ccco2)c(C(=O)c2ccccn2)s1 [Compound 276, N-[4-(2-Furyl)-5-(pyridin-2-ylcarbonyl)thiazol-2-yl]-2-(4-phenylpiperazin-1-yl)acetamide]"
17,215 to 218 °C,"O=C(CN1CCN(c2ccccn2)CC1)Nc1nc(-c2ccco2)c(C(=O)c2ccccn2)s1 [Compound 277, N-[4-(2-Furyl)-5-(pyridin-2-ylcarbonyl)thiazol-2-yl]-2-[4-(2-pyridyl)piperazin-1-yl]acetamide]"
